The values that follow come from DBAASP.

Broadly, the MIC is the lowest concentration found to suppress growth. Read a low MIC as greater potency.

Molecules are shown by their SMILES. ≈ marks a conversion by molar mass, not a printed value.

Some test systems named below: Bacillus cereus AS1.126; Escherichia coli AS1.349; Acinetobacter baumannii; Candida albicans; Candida glabrata; Candida tropicalis; Staphylococcus aureus; Escherichia coli O111; Bacillus subtilis 168; Escherichia coli B; Pseudomonas aeruginosa; Staphylococcus aureus 1.
Common to all, as to experiment: ≥ marks a high value that may be exact or a test limit, other limits are often not marked, values filed in µg/mL are converted to µM
The test system of assay [1] is Streptococcus mutans UA159.
Assay [2] has as its system Streptococcus sanguinis ATCC 10556.
Assay [3] deals with Streptococcus sobrinus ATCC 6715.
Assay [4] concerns Enterococcus faecalis CGMCC 1.595.
Assay [5] has as its system Enterococcus faecium CGMCC 1.2334.
Assay [6] concerns Lactococcus lactis AS1.1690.
Assay [7] concerns Pseudomonas aeruginosa CGMCC 1.860.
For assay [8], the system named is Staphylococcus aureus AS1.72.
Assay [9] has as its system Pseudomonas aeruginosa ATCC 10662.
Assay [10] deals with Staphylococcus aureus ATCC 25923.
In assay [11] the test system is Staphylococcus epidermidis ATCC 1435.
Assay [12] deals with Cronobacter sakazakii DPC 6440.
Assay [13] relates to Listeria monocytogenes LO28.
For assay [14], the system named is Bacillus subtilis ATCC 6633.
In assay [15] the test system is Escherichia coli ATCC 25922.
Assay [16] has as its system Staphylococcus aureus FDA 209P.
Assay [17] deals with Klebsiella pneumoniae ATCC 27736.
In assay [18] the test system is Pseudomonas aeruginosa ATCC BAA-427.
The subject of assay [19] is Candida albicans F7-39/IDE99.
Assay [20] relates to Micrococcus luteus CCM 144.
The subject of assay [21] is Pseudomonas aeruginosa ATCC 27853.
Assay [22] concerns Staphylococcus aureus ATCC 43300.
The test system of assay [23] is Staphylococcus epidermidis.

With `NCCCC[C@H](NC(=O)CNC(=O)[C@H](Cc1ccccc1)NC(=O)[C@H](CCCCN)NC(=O)[C@H](Cc1ccccc1)NC(=O)[C@H](Cc1ccccc1)NC(=O)[C@H](CCCCN)NC(=O)[C@H](CCCCN)NC(=O)[C@H](Cc1ccccc1)NC(=O)[C@H](Cc1ccccc1)NC(=O)[C@H](CCCCN)NC(=O)CNC(=O)[C@@H](N)Cc1c[nH]c2ccccc12)C(=O)O` [WGKFFKKFFKFGK], the minimum inhibitory concentration (MIC) in assay [1], in assay [2] and in assay [3] was 18.9 µM (≈ 32 µg/mL) in each case.

Consider `NC(N)=NCCC[C@H](NC(=O)[C@H](Cc1cnc[nH]1)NC(=O)[C@H](Cc1c[nH]c2ccccc12)NC(=O)[C@H](Cc1ccccc1)NC(=O)[C@H](CCCN=C(N)N)NC(=O)[C@@H](N)CCCN=C(N)N)C(=O)O` [RRFWHR], for which the MIC (in the assay with Bacillus cereus AS1.126; in assay [4]; in [5]; in the assay on Escherichia coli AS1.349; in assay [6]; in assay [7]) was ≥ 100 µM each time. Moreover, in assay [8], the MIC was ≥ 100 µM.

`CC(C)C[C@H](NC(=O)[C@H](CC(N)=O)NC(=O)[C@H](CCCN=C(N)N)NC(=O)[C@H](Cc1ccccc1)NC(=O)[C@@H](N)Cc1ccccc1)C(=O)N[C@@H](Cc1c[nH]c2ccccc12)C(=O)N[C@@H](CCCCN)C(=O)NCC(=O)N[C@@H](C)C(=O)N[C@@H](CCCCN)C(=O)N[C@@H](C)C(=O)N[C@@H](C)C(=O)N[C@@H](Cc1ccccc1)C(=O)N[C@@H](CCCN=C(N)N)C(=O)N[C@@H](C)C(=O)NCC(=O)N[C@@H](Cc1cnc[nH]1)C(=O)N[C@@H](C)C(=O)N[C@@H](C)C(=O)N[C@@H](Cc1c[nH]c2ccccc12)C(=O)N[C@@H](CCCN=C(N)N)C(=O)N[C@@H](C)C(=O)O` [FFRNLWKGAKAAFRAGHAAWRA]: the MIC against Acinetobacter baumannii was 2.47 µM (≈ 6.25 µg/mL); against Candida albicans, 2.47 µM (≈ 6.25 µg/mL); in the assay with Candida glabrata, ≥ 39.5 µM; against Candida tropicalis it was 2.47 µM (≈ 6.25 µg/mL); in assay [9], 19.7 µM (≈ 50 µg/mL); in [10], 1.23 µM (≈ 3.12 µg/mL). Besides, the MIC against Staphylococcus aureus turned out to be 1.23 µM (≈ 3.12 µg/mL); in [11], 0.616 µM (≈ 1.56 µg/mL).

Turning to `CC[C@H](C)[C@H](NC(=O)[C@@H](N)Cc1c[nH]c2ccccc12)C(=O)N[C@@H](CCC(N)=O)C(=O)N1CCC[C@H]1C(=O)N[C@@H](CCCCN)C(=O)N[C@H](C(=O)N[C@@H](CCCCN)C(=O)N[C@H](C(=O)N[C@@H](C)C(=O)N1CCC[C@H]1C(=O)N[C@@H](Cc1ccc(O)cc1)C(=O)N[C@H](C(=O)N[C@@H](CCCN=C(N)N)C(=O)N[C@@H](Cc1ccc(O)cc1)C(=O)N[C@@H](CC(C)C)C(=O)O)C(C)C)C(C)C)[C@@H](C)O` [WIQPKTKVAPYVRYL], the MIC in assay [12] is ≥ 78.1 µM; in assay [13], 19.5 µM (≈ 36.4 µg/mL).

`CC[C@H](C)[C@H](NC(=O)[C@@H](NC(=O)CN)C(C)C)C(=O)N[C@H](C(=O)N[C@@H](CC(=O)O)C(=O)N[C@@H](C)C(=O)N[C@@H](CC(C)C)C(=O)N[C@@H](CCCCN)C(=O)NCC(=O)N[C@@H](C)C(=O)N[C@@H](C)C(=O)N[C@@H](CCCCN)C(=O)N[C@H](C(=O)N[C@H](C(=O)N[C@@H](C)C(=O)N[C@@H](C)C(=O)N[C@@H](CCC(=O)O)C(=O)N[C@@H](CC(C)C)C(=O)N[C@@H](CC(C)C)C(=O)N[C@@H](CCCN=C(N)N)C(=O)N[C@@H](CCCCN)C(=O)N[C@@H](C)C(=O)N[C@@H](Cc1cnc[nH]1)C(=O)N[C@H]1CSSC[C@@H](C(=O)O)NC(=O)[C@H](CO)NC(=O)[C@H](CC(N)=O)NC(=O)[C@H]([C@@H](C)O)NC(=O)[C@H](CC(C)C)NC(=O)[C@H](CCCCN)NC1=O)C(C)C)[C@@H](C)O)[C@@H](C)O` [GVITDALKGAAKTVAAELLRKAHCKLTNSC]: the MIC in [14] worked out at 20.8 µM (≈ 64 µg/mL); in [15] it was 2.66 µM (≈ 8.19 µg/mL); against Escherichia coli O111 it was 2.66 µM (≈ 8.19 µg/mL); in [16] it was 5.35 µM (≈ 16.5 µg/mL).

In the case of `CC[C@H](C)[C@H](NC(=O)[C@H](Cc1cnc[nH]1)NC(=O)[C@H](Cc1cnc[nH]1)NC(=O)[C@H](Cc1ccccc1)NC(=O)[C@@H](N)Cc1ccccc1)C(=O)N[C@@H](Cc1ccccc1)C(=O)N[C@@H](CCCN=C(N)N)C(=O)NCC(=O)N[C@@H](C)C(=O)N[C@H](C(=O)N[C@@H](Cc1cnc[nH]1)C(=O)N[C@H](C(=O)NCC(=O)N[C@@H](CCCCN)C(=O)N[C@H](C(=O)N[C@H](C(=O)N[C@@H](Cc1cnc[nH]1)C(=O)N[C@@H](CCCN=C(N)N)C(=O)N[C@@H](CC(C)C)C(=O)N[C@H](C(=O)N[C@H](C(=O)NCC(N)=O)[C@@H](C)O)C(C)C)[C@@H](C)CC)[C@@H](C)O)C(C)C)C(C)C` [FFHHIFRGAVHVGKTIHRLVTG], the MIC came to 1.23 µM (≈ 3.1 µg/mL) in the assay on Acinetobacter baumannii; 8 µM (≈ 20.2 µg/mL) in [14]; 6 µM (≈ 15.2 µg/mL) in assay [17]; 9.88 µM (≈ 25 µg/mL) in assay [9]; 10 µM (≈ 25.3 µg/mL) in assay [18]; 1.23 µM (≈ 3.1 µg/mL) in the assay on Staphylococcus aureus. The same compound registered an MIC in [11] of 0.593 µM (≈ 1.5 µg/mL).

In the case of `CC[C@H](C)[C@H](NC(=O)CN)C(=O)N[C@@H](CCSC)C(=O)N[C@@H](CO)C(=O)N[C@@H](CO)C(=O)N[C@@H](CC(C)C)C(=O)N[C@@H](CCSC)C(=O)N[C@@H](CCCCN)C(=O)N[C@@H](CCCCN)C(=O)N[C@@H](CC(C)C)C(=O)N[C@@H](C)C(=O)N[C@@H](CCCCN)C(=O)N[C@H](C(=O)N[C@H](C(=O)N[C@@H](C)C(=O)N[C@@H](CCCCN)C(N)=O)[C@@H](C)CC)[C@@H](C)CC` [GIMSSLMKKLAKIIAK], the MIC against Bacillus subtilis 168 was found to be 7 µM (≈ 12.1 µg/mL); in assay [19], 11 µM (≈ 19 µg/mL); against Escherichia coli B, 3.7 µM (≈ 6.41 µg/mL); in [20], 3 µM (≈ 5.19 µg/mL); in [21], 4.5 µM (≈ 7.79 µg/mL); with Pseudomonas aeruginosa, 9.3 µM (≈ 16.1 µg/mL). Also, the MIC against Staphylococcus aureus 1 came to 5.2 µM (≈ 9 µg/mL); in assay [22], 9 µM (≈ 15.6 µg/mL); with Staphylococcus aureus, 10 µM (≈ 17.3 µg/mL); in assay [23], 5 µM (≈ 8.66 µg/mL).

Regarding `CC(C)[C@H](NC(=O)[C@H](CCCCN)NC(=O)[C@H](C)NC(=O)[C@H](C)NC(=O)[C@H](CCCCN)NC(=O)[C@H](CCCCN)NC(=O)[C@H](Cc1ccccc1)NC(=O)[C@H](Cc1ccccc1)NC(=O)[C@H](CCCCN)NC(=O)[C@H](CCCCN)NC(=O)[C@H](Cc1c[nH]c2ccccc12)NC(=O)CN)C(=O)NCC(=O)N[C@@H](CCCCN)C(=O)O` [GWKKFFKKAAKVGK], the MIC in [1], in assay [2] and in assay [3] was ≥ 315 µM each time.
